Measurements as given in US20240270724A1, “GALECTIN-3 INHIBITING C-GLYCOSIDES” (GLYCOMIMETICS, INC., priority 2021, published 2024).

Columns and labels:
[1] = molecular target: T1, carbohydrate recognition domain of human galectin-3 (Galectin-3-CRD) (Homo sapiens, UniProt P17931); assay: Galectin-3 activity microscale thermophoresis assay; assay type: binding; details: label-free MST, 20 nM galectin-3-CRD; average of all assays (± standard deviation), each assay in triplicate
T1 construct: The carbohydrate recognition domain of human galectin-3 (Servesto Galectin-3-CRD) was diluted; purchased Servesto
T1 sequence (P17931 118-248 limits assumed): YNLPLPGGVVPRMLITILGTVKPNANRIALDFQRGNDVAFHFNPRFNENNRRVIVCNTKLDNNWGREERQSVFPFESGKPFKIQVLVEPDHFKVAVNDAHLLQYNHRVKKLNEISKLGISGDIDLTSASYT
Description: The carbohydrate recognition domain of human galectin-3 (Servesto Galectin-3-CRD) was diluted with PBS+0.1% F127 to 40 nM. Separately, a 40 uM stock of Compound 45 in DMSO was diluted down to 4 uM in PBS+0.1% F127 and serially diluted in sixteen steps using a dilution factor of 1 to 2 in 10% DMSO+PBS+0.1% F127. To each sample in the serial dilution of Compound 45, 10 ul of 40 nM Galectin-3-CRD was added, yielding final concentrations of 20 nM galectin-3-CRD and 5% DMSO+PBS+0.1% F127. NT.LabelFree Zero background Standard Treated Capillaries were filled with the prepared solutions then loaded into the Monolith NT Label-Free MST instrument. The reaction was measured with 100% excitation power of LED and medium (40%) MST power. Binding curves and Kd values were generated using MO affinity analysis. Each assay was run in triplicate. Some compounds were subjected to more than one assay run in triplicate.

galectin-3 = molecular target: T2, galectin-3 (Homo sapiens, UniProt P17931); assay: Galectin-3 activity ELISA assay: inhibition of galectin-3 binding to immobilized Galβ1-3GlcNAc polymer; details: inhibition of galectin-3 binding to Galβ1-3GlcNAc polymer, average (± standard deviation) where assayed more than once
T2 construct: purchased IBL IBATGP0414
T2 sequence (P17931 whole entry): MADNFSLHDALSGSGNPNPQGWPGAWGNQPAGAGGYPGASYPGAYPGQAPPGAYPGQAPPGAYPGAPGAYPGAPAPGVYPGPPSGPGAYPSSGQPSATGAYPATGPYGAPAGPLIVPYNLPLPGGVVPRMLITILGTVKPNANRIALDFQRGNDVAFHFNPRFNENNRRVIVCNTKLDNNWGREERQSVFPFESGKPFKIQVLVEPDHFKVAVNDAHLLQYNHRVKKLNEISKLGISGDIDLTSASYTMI
Source text: An inhibition assay may be used to screen for antagonists of galectin-3. For example, an assay may be performed to characterize the capability of a compound described herein to inhibit interaction of galectin-3 with a Galβ1-3GlcNAc carbohydrate structure. The inhibition assay may be a competitive binding assay, which allows the determination of IC50 values. By way of example, a Galβ1-3GlcNAc polymer may be immobilized onto a matrix; a composition may be added to reduce nonspecific binding; the immobilized Galβ1-3GlcNAc polymer may be contacted with the candidate compound in the presence of galectin-3 group under conditions and for a time sufficient to permit galectin-3 to bind to the immobilized Galβ1-3GlcNAc polymer; the immobilized Galβ1-3GlcNAc polymer may be washed; and the amount of galectin-3 bound to the immobilized Galβ1-3GlcNAc polymer may be detected. Variations of such steps can be readily and routinely accomplished by a person of ordinary skill in the art.
Galectin-3 antagonists were evaluated for their ability to inhibit binding of galectin-3 to a Galβ1-3GlcNAc carbohydrate structure. The detailed protocol was as follows. A 1 μg/mL suspension of a Galβ1-3GlcNAcβ1-3Galβ1-4GlcNAcβ-PAA-biotin polymer (Glycotech, catalog number 01-096) was prepared. A 100 μL aliquot of the polymer was added to the wells of a 96-well streptavidin-coated plate (R&D Systems, catalog number CP004). A 100 μL aliquot of 1× Tris Buffered Saline (TBS, Sigma, catalog number T5912-10X) was added to control wells. The polymer was allowed to bind to the streptavidin-coated wells for 1.5 hours at room temperature. The contents of the wells were discarded, and 200 μL of 1×TBS containing 1% bovine serum albumin (BSA) was added to each well as a blocking reagent and the plate was kept at room temperature for 30 minutes. The wells were washed three times with 1×TBS containing 0.1% BSA. A serial dilution of test compounds was prepared in a separate V-bottom plate (Corning, catalog number 3897). A 75 μL aliquot of the highest concentration of the compound to be tested was added to the first well in a column of the V-bottom plate, then 15 μL were serially transferred into 60 μL 1×TBS through the remaining wells in the column to generate a 1 to 5 serial dilution. A 60 μL aliquot of 2 μg/mL galectin-3 (IBL, catalog number IBATGP0414) was added to each well in the V-bottom plate. A 100 μL aliquot of the galectin-3 test compound mixture was transferred from the V-bottom plate into the assay plate containing the Galβ1-3GlcNAc polymer. Four sets of control wells in the assay plate were prepared in duplicate containing 1) both Galβ1-3GlcNAc polymer and galectin-3, 2) neither the polymer nor galectin-3, 3) galectin-3 only, no polymer, or 4) polymer only, no galectin-3. The plate was gently rocked for 1.5 hours at room temperature. The wells were washed four times with TBS/0.1% BSA. A 100 μL aliquot of anti-galectin-3 antibody conjugated to horse radish peroxidase (R&D Systems, from DGAL30 kit) was added to each well, and the plate was kept at room temperature for 1 hour. The wells were washed four times with TBS/0.1% BSA. A 100 μL aliquot of TMB substrate solution was added to each well. The TMB substrate solution was prepared by making a 1:1 mixture of TMB Peroxidase Substrate (KPL, catalog number 5120-0048) and Peroxidase Substrate Solution B (KPL, catalog number 5120-0037). The plate was kept at room temperature for 10 to 20 minutes. The color development was stopped by adding 100 uL 10% phosphoric acid (RICCA Chemical Co., catalog number 5850-16). The absorbance at 450 nm (A450) was measured using a FlexStation 3 plate reader (Molecular Devices). Plots of A450 versus test compound concentration and IC50 determinations were made using GraphPad Prism 6. The number of assays run (n) for each compound is recorded in the following table.

CNC(=O)[C@@H](OCc1ccc(Br)cc1)[C@@H]1OC(CO)[C@H](O)C(n2cc(-c3cc(F)c(F)c(F)c3)nn2)C1OC (stereo partly drawn) [Compound 19]
Kd [1]: 23 nM | IC50 (galectin-3): 448 nM

COCCCNC(=O)[C@@H](OCc1ccc(Br)cc1)[C@@H]1OC(CO)[C@H](O)C(n2cc(-c3cc(F)c(F)c(F)c3)nn2)C1OC (stereo partly drawn) [Compound 20]
Kd [1]: 36 nM | IC50 (galectin-3): 265 nM

COCCCNC(=O)[C@@H](OCc1ccc(Br)cc1)[C@@H]1OC(CO)[C@H](O)C(n2cc(-c3cc(F)cc(F)c3)nn2)C1OC (stereo partly drawn) [Compound 21]
Kd [1]: 33 nM | IC50 (galectin-3): 474 nM

COCCCN(C)C(=O)[C@@H](OCc1ccc(Br)cc1)[C@@H]1OC(CO)[C@H](O)C(n2cc(-c3cc(F)cc(F)c3)nn2)C1OC (stereo partly drawn) [Compound 22]
Kd [1]: 83 nM | IC50 (galectin-3): 1490 nM

COC1C(n2cc(-c3cc(F)c(F)c(F)c3)nn2)[C@@H](O)C(CO)O[C@H]1[C@H](OCc1ccc(Br)cc1)C(=O)NC(C)C (stereo partly drawn) [Compound 23]
Kd [1]: 1.7 nM | IC50 (galectin-3): 271 nM

CC(C)OC(=O)[C@@H](OCc1ccc(Br)cc1)[C@@H]1OC(CO)[C@H](O)C(n2cc(-c3cc(F)c(F)c(F)c3)nn2)C1O (stereo partly drawn) [Compound 27]
Kd [1]: 26 nM | IC50 (galectin-3): 173 nM

COCCCNC(=O)[C@@H](OCc1ccc(Br)cc1)[C@@H]1OC(CO)[C@H](O)C(n2cc(-c3cc(F)cc(F)c3)nn2)C1O (stereo partly drawn) [Compound 35]
Kd [1]: 21 nM | IC50 (galectin-3): 391 nM

COCCCNC(=O)[C@@H](OCc1ccc(Br)cc1)[C@@H]1OC(CO)[C@H](O)C(n2cc(-c3cc(F)c(F)c(F)c3)nn2)C1O (stereo partly drawn) [Compound 36]
Kd [1]: 14 nM | IC50 (galectin-3): 204 nM

COC1C(n2cc(-c3cc(F)c(F)c(F)c3)nn2)[C@@H](O)C(CO)O[C@H]1[C@H](OCc1ccc(Br)cc1)C(=O)OC(C)C (stereo partly drawn) [Compound 43]
Kd [1]: 12 nM | IC50 (galectin-3): 103 nM

CC(C)NC(=O)[C@@H](OCc1ccc(Br)cc1)[C@@H]1OC(CO)[C@H](O)C(n2cc(-c3cc(F)c(F)c(F)c3)nn2)C1O (stereo partly drawn) [Compound 44]
Kd [1]: 12 nM | IC50 (galectin-3): 291 nM

[2H]C([2H])([2H])OC1C(n2cc(-c3cc(F)c(F)c(F)c3)nn2)[C@@H](O)C(CO)O[C@H]1[C@H](OCc1ccc(Br)cc1)C(=O)NC(C)C (stereo partly drawn) [Compound 45]
Kd [1]: 8.9 nM | IC50 (galectin-3): 171 nM

[2H]C([2H])([2H])OC1C(n2cc(-c3cc(F)c(F)c(F)c3)nn2)[C@@H](O)C(CO)O[C@H]1[C@H](OCc1ccc(Br)cc1)C(=O)NC([2H])(C([2H])([2H])[2H])C([2H])([2H])[2H] (stereo partly drawn) [Compound 46]
Kd [1]: 2.9 nM | IC50 (galectin-3): 228 nM

[2H]C([2H])([2H])OC1C(n2cc(-c3cc(F)c(F)c(F)c3)nn2)[C@@H](O)C(CO)O[C@H]1[C@H](OCc1ccc(Br)cc1)C(=O)NC1CC1 (stereo partly drawn) [Compound 47]
Kd [1]: 11 nM | IC50 (galectin-3): 408 nM

[2H]C([2H])([2H])OC1C(n2cc(-c3cc(F)c(F)c(F)c3)nn2)[C@@H](O)C(CO)O[C@H]1[C@H](OCc1ccc(Br)cc1)C(=O)NC(C)(C)C (stereo partly drawn) [Compound 48]
Kd [1]: 46 nM | IC50 (galectin-3): 972 nM

COC1C(n2cc(-c3cc(F)c(F)c(F)c3)nn2)[C@@H](O)C(CO)O[C@H]1[C@H](OCc1ccc(Br)cc1)C(=O)NC1CC1 (stereo partly drawn) [Compound 49]
Kd [1]: 18 nM | IC50 (galectin-3): 116 nM

[2H]C([2H])([2H])OC1C(n2cc(-c3cc(F)c(F)c(F)c3)nn2)[C@@H](O)C(CO)O[C@H]1[C@H](OCc1ccc(Br)cc1)C(=O)NC1(C)CC1 (stereo partly drawn) [Compound 50]
Kd [1]: 10 nM | IC50 (galectin-3): 201 nM

[2H]C([2H])([2H])OC1C(n2cc(-c3cc(F)c(F)c(F)c3)nn2)[C@@H](O)C(CO)O[C@H]1[C@H](OCc1ccc(Br)cc1)C(=O)NC1(C(F)(F)F)CC1 (stereo partly drawn) [Compound 51]
Kd [1]: 17 nM | IC50 (galectin-3): 702 nM

[2H]C([2H])([2H])OC1C(n2cc(-c3cc(F)c(F)c(F)c3)nn2)[C@@H](O)C(CO)O[C@H]1[C@H](OCc1ccc(Br)c(F)c1)C(=O)NC(C)C (stereo partly drawn) [Compound 61]
Kd [1]: 10 nM | IC50 (galectin-3): 771 nM

[2H]C([2H])([2H])OC1C(n2cc(-c3cc(F)c(F)c(F)c3)nn2)[C@@H](O)C(CO)O[C@H]1[C@H](OCc1ccc(Br)cc1)C(=O)NC1CC1(F)F (stereo partly drawn) [Compound 62]
Kd [1]: 11 nM | IC50 (galectin-3): 826 nM

[2H]C([2H])([2H])OC1C(n2cc(-c3cc(F)c(F)c(F)c3)nn2)[C@@H](O)C(CO)O[C@H]1[C@H](OCc1ccc(Br)cc1)C(=O)NC1CNC1 (stereo partly drawn) [Compound 63]
Kd [1]: 22 nM | IC50 (galectin-3): 51 nM

[2H]C([2H])([2H])OC1C(n2cc(-c3cc(F)c(F)c(F)c3)nn2)[C@@H](O)C(CO)O[C@H]1[C@H](OCc1ccc(Br)cc1)C(=O)NC1COC1 (stereo partly drawn) [Compound 64]
Kd [1]: 18 nM | IC50 (galectin-3): 236 nM

[2H]C([2H])([2H])OC1C(n2cc(-c3cc(F)c(F)c(F)c3)nn2)[C@@H](O)C(CO)O[C@H]1[C@H](OCc1ccc(Br)cc1)C(=O)N[C@H]1C[C@H]1F (stereo partly drawn) [Compound 65]
Kd [1]: 13 nM | IC50 (galectin-3): 364 nM

[2H]C([2H])([2H])OC1C(n2cc(-c3cc(F)c(F)c(F)c3)nn2)[C@@H](O)C(CO)O[C@H]1[C@H](OCc1ccc(Br)cc1)C(=O)NC1CC(F)(F)C1 (stereo partly drawn) [Compound 66]
Kd [1]: 3.6 nM | IC50 (galectin-3): 143 nM

[2H]C([2H])([2H])OC1C(n2cc(-c3cc(F)c(F)c(F)c3)nn2)[C@@H](O)C(CO)O[C@H]1[C@H](OCc1ccc(Br)cc1)C(=O)NC1CCC1 (stereo partly drawn) [Compound 67]
Kd [1]: 2.2 nM | IC50 (galectin-3): 153 nM

[2H]C([2H])([2H])OC1C(n2cc(-c3cc(F)c(F)c(F)c3)nn2)[C@@H](O)C(CO)O[C@H]1[C@H](OCc1ccc(Br)cc1)C(=O)N(C)C (stereo partly drawn) [Compound 68]
Kd [1]: 87 nM | IC50 (galectin-3): 709 nM

CCNC(=O)[C@@H](OCc1ccc(Br)cc1)[C@@H]1OC(CO)[C@H](O)C(n2cc(-c3cc(F)c(F)c(F)c3)nn2)C1OC (stereo partly drawn) [Compound 69]
Kd [1]: 32 nM | IC50 (galectin-3): 269 nM

COC1C(n2cc(-c3cc(F)c(F)c(F)c3)nn2)[C@@H](O)C(CO)O[C@H]1[C@H](OCc1ccc(Br)cc1)C(=O)NCCO (stereo partly drawn) [Compound 70]
Kd [1]: 20 nM | IC50 (galectin-3): 192 nM
